Columns and labels:
[1] = molecular target: T1, mutEGFR (D770_N771insSVD) (Homo sapiens, UniProt P00533, DUP768-770); assay: Exon20-Mutant-EGFR (D770_N771insSVD) kinase assay (TR-FRET); format: biochemical; conditions: mutEGFR (D770_N771insSVD) kinase assay IC50, Table 2a; D770_N771insSVD; 2 mM ATP
T1 construct: GST-EGFR #3 (SVD between D770 and N771); made in house; host or cells: Sf9 insect cells (baculovirus)

[2] = molecular target: T2, mutEGFR (D770_N771insNPG, T790) (Homo sapiens, UniProt P00533, INS770NPG/T790M); assay: mutEGFR (D770_N771insNPG, T790) kinase assay; format: biochemical; conditions: Table 2a, D770_N771insNPG
T2 construct: exact insNPG construct not described; in-house EGFR proteins were N-terminal GST fusions from baculovirus/insect cells (borders R669-A1210 given only for WT, insSVD, insASV)
Text: The different EGFR proteins used in the biochemical kinase activity inhibition assays were generated inhouse by expression in insect cells using Baculo Virus system and subsequent purification as described in the following paragraphs.
The cDNAs encoding the various protein sequences from human EGFR human (P00533) were optimized for expression in eukaryotic cells and synthesized by the GeneArt Technology at Life Technologies.

BA/F3 (insSVD) cells = assay: Ba/F3-EGFR-insSVD cell survival assay (Cell Titer-Glo); format: cell-based; conditions: Mus musculus, BaF3, 48 h, Table 3a, cell survival, Cell Titer-Glo, with 10 ng/ml EGF, without IL-3
Protocol: Cellular Data Description (WT, insSVD, insSVD T790M) 293T cells from ATCC were transfected with pBABEpuro expression constructs for WT EGFR or EGFR-insSVD, or EGFR-insSVD T790M, and pCL-Eco packaging vector using Fugene-6 transfection reagent from Promega. Plates were incubated at 37° C. for 48 h. Retrovirus was harvested by filtering the media supernatant through a 0.45 μm filter.
Ba/F3 cells purchased from DSMZ were grown in RPMI+10% FBS+10 ng/ml IL-3 and infected with filtered retroviral supernatant at a 1:2 dilution. Polybrene was added to a concentration of 8 μg/mL, plates were spun for 90 min, and incubated for 16 h at 37° C. 2 μg/mL puromycin was added to the infected cells 24 h after infection and cells were continually grown in the presence of puromycin and 10 ng/ml IL-3. Following stably expressing Ba/F3 cell lines were generated: Ba/F3-EGFR-WT, Ba/F3-EGFR-insSVD, Ba/F3-EGFR-insSVD T790M, (Ba/F3-vector-control).
For cell survival assays, Ba/F3 cells were grown to a density of 1-2 million cells per mL, spun down and resuspended in media without IL-3, and replated at a concentration of 200,000-500,000 cells per mL. The cells ectopically expressing WT EGFR, EGFR-insSVD, or EGFR-insSVD T790M were plated with 10 ng/ml Millipore Culture grade EGF. The cells ectopically expressing pBABEpuro empty vector were plated with 10 ng/mL IL-3.
2 days later, cells were plated in 50 µL in a 384 well plate at a concentration of 4000 cells per well for cells assayed in the absence of IL-3 and 2000 cells per well for cells assayed in the presence of IL-3. 100 nL of compound was added to each well using a 100 nL pin head, and plates were incubated at 37° C. for 48 h.
Cell viability was measured by adding 20 μL of Cell Titer-Glo Luminescent Cell Viability Reagent diluted 1:3 in PBS. Plates were sealed with Perkin Elmer Top-Seal, inverted several times to mix, and immediately centrifuged at 1000 rpm for 2 min. Plates were incubated in low light conditions for 8-10 min and luminescence was measured.

T1 sequence (P00533 with tags, fused parts or gaps DUP768-770): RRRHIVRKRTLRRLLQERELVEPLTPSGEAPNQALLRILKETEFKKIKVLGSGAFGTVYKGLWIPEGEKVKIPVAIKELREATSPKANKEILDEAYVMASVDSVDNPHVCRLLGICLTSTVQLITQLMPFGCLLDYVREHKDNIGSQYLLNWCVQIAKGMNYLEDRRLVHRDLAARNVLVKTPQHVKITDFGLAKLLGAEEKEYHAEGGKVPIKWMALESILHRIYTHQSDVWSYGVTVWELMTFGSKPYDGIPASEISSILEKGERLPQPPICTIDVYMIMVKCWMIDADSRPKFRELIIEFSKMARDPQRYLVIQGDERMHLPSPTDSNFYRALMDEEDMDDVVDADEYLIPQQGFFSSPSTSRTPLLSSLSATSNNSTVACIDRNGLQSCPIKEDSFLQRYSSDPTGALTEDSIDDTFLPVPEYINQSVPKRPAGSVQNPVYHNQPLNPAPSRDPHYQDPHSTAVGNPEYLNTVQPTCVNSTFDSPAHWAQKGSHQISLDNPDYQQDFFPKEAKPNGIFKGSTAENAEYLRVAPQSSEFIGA
T2 sequence (P00533 with tags, fused parts or gaps INS770NPG/T790M limits assumed): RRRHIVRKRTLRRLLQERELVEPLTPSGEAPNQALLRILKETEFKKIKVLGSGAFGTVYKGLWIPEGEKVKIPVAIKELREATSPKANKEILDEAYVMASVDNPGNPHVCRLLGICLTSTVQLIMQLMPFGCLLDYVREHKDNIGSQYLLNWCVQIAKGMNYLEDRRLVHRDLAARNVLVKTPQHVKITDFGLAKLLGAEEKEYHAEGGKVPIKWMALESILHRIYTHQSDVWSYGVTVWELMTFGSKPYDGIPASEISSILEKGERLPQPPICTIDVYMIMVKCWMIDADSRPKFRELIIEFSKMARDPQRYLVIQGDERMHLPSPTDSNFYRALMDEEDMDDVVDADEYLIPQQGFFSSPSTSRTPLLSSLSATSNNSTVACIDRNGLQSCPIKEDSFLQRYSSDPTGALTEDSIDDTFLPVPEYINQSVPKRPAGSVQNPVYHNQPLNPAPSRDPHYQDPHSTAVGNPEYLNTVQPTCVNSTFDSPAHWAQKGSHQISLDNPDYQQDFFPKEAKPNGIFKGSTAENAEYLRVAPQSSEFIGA

Compound | IC50 [1] [nM] | IC50 [2] [nM] | IC50 (BA/F3 (insSVD) cells) [nM]
CN(C)C/C=C/C(=O)N1Cc2c(-c3ccncc3)c(-c3ccc(F)cc3)nn2C(CC(=O)N(C)C)C1 (racemic) [Example 222, 2-[(7RS)-5-[(2E)-4-(dimethylamino)but-2-enoyl]-2-(4-fluorophenyl)-3-(pyridin-4-yl)-4,5,6,7-tetrahydropyrazolo[1,5-a]pyrazin-7-yl]-N,N-dimethylacetamide] | 3.76 | 13 | 658
C=CC(=O)N1Cc2c(-c3ccncc3)c(-c3ccc4cc(F)sc4c3)nn2CC1C (racemic) [Example 229, 1-[(RS)-2-(2-fluoro-1-benzothiophen-6-yl)-6-methyl-3-(pyridin-4-yl)-6,7-dihydropyrazolo[1,5-a]pyrazin-5(4H)-yl]prop-2-en-1-one] | 0.188 | 0.351 | 17.1
C=CC(=O)N1Cc2c(-c3ccncc3)c(-c3ccc(C(F)(F)F)cc3F)nn2CC1C (racemic) [Example 230, 1-[(6RS)-2-[2-fluoro-4-(trifluoromethyl)phenyl]-6-methyl-3-(pyridin-4-yl)-6,7-dihydropyrazolo[1,5-a]pyrazin-5(4H)-yl]prop-2-en-1-one] | 0.416 | 1.04 | 15.6
C=CC(=O)N1Cc2c(-c3ccncc3)c(-c3ccc(OC)cc3F)nn2CC1C (racemic) [Example 231, 1-[(RS)-2-(2-fluoro-4-methoxyphenyl)-6-methyl-3-(pyridin-4-yl)-6,7-dihydropyrazolo[1,5-a]pyrazin-5(4H)-yl]prop-2-en-1-one] | 0.502 | 1.1 | 65.9
C=CC(=O)N1Cc2c(-c3ccncc3)c(-c3ccc4ccccc4c3)nn2CC1C (racemic) [Example 232, 1-[(RS)-6-methyl-2-(naphthalen-2-yl)-3-(pyridin-4-yl)-6,7-dihydropyrazolo[1,5-a]pyrazin-5(4H)-yl]prop-2-en-1-one] | 0.116 | 0.164 | 15.5
C=CC(=O)N1Cc2c(-c3ccncc3)c(-c3ccc4cc(Cl)sc4c3)nn2CC1C (racemic) [Example 233, 1-[(RS)-2-(2-chloro-1-benzothiophen-6-yl)-6-methyl-3-(pyridin-4-yl)-6,7-dihydropyrazolo[1,5-a]pyrazin-5(4H)-yl]prop-2-en-1-one] | 0.258 | 0.467 | 48.7
CC1Cn2nc(-c3ccc(Cl)cc3F)c(-c3ccncc3)c2CN1C(=O)/C=C/CN(C)C (racemic) [Example 235, (2E)-1-[(RS)-2-(4-chloro-2-fluorophenyl)-6-methyl-3-(pyridin-4-yl)-6,7-dihydropyrazolo[1,5-a]pyrazin-5(4H)-yl]-4-(dimethylamino)but-2-en-1-one] | 0.18 | 0.592 | 24.1
CC1Cn2nc(-c3ccc4ccsc4c3)c(-c3ccncc3)c2CN1C(=O)/C=C/CN(C)C (racemic) [Example 236, (2E)-1-[(RS)-2-(1-benzothiophen-6-yl)-6-methyl-3-(pyridin-4-yl)-6,7-dihydropyrazolo[1,5-a]pyrazin-5(4H)-yl]-4-(dimethylamino)but-2-en-1-one] | 0.181 | 0.289 | 256
C=C(F)C(=O)N1Cc2c(-c3ccncc3)c(-c3ccc(Cl)cc3F)nn2CC1C (racemic) [Example 237, 1-[(RS)-2-(4-chloro-2-fluorophenyl)-6-methyl-3-(pyridin-4-yl)-6,7-dihydropyrazolo[1,5-a]pyrazin-5(4H)-yl]-2-fluoroprop-2-en-1-one] | 2.94 | 9.96 | 126
C=C(F)C(=O)N1Cc2c(-c3ccncc3)c(-c3ccc4ccsc4c3)nn2CC1C (racemic) [Example 238, 1-[(RS)-2-(1-benzothiophen-6-yl)-6-methyl-3-(pyridin-4-yl)-6,7-dihydropyrazolo[1,5-a]pyrazin-5(4H)-yl]-2-fluoroprop-2-en-1-one] | 1.57 | 2.21 | 68.7
CC1c2c(-c3ccncc3)c(-c3ccc(Cl)cc3F)nn2CCN1C(=O)/C=C/CN(C)C (racemic) [Example 244, (2E)-1-[(RS)-2-(4-chloro-2-fluorophenyl)-4-methyl-3-(pyridin-4-yl)-6,7-dihydropyrazolo[1,5-a]pyrazin-5(4H)-yl]-4-(dimethylamino)but-2-en-1-one] | 0.749 | 1.99 | 168
C=CC(=O)N1Cc2c(-c3ccncc3)c(-c3ccc4sccc4c3)nn2C(C)C1 (racemic) [Example 280, 1-[(7RS)-2-(1-benzothiophen-5-yl)-7-methyl-3-(pyridin-4-yl)-6,7-dihydropyrazolo[1,5-a]pyrazin-5(4H)-yl]prop-2-en-1-one] | 0.0813 | 0.151 | 6.82

Continued, in another order:

IC50 [1] [nM] | IC50 [2] [nM] | Compound | IC50 (BA/F3 (insSVD) cells) [nM]
0.724 | 2.2 | C=CC(=O)N1Cc2c(-c3ccncc3)c(-c3ccc(OC)cc3)nn2CC1C (racemic) [Example 228, 1-[(6RS)-2-(4-methoxyphenyl)-6-methyl-3-(pyridin-4-yl)-6,7-dihydropyrazolo[1,5-a]pyrazin-5(4H)-yl]prop-2-en-1-one] | 44.6
0.17 | 0.331 | C=CC(=O)N1Cc2c(-c3ccncc3)c(-c3ccc4ccsc4c3)nn2CC1C (racemic) [Example 234, 1-[(6RS)-2-(1-benzothiophen-6-yl)-6-methyl-3-(pyridin-4-yl)-6,7-dihydropyrazolo[1,5-a]pyrazin-5(4H)-yl]prop-2-en-1-one] | 122
1.39 | 4.74 | C=CC(=O)N1CCn2nc(-c3ccc(F)cc3)c(-c3ccncc3)c2C1C (racemic) [Example 239, 1-[(RS)-2-(4-fluorophenyl)-4-methyl-3-(pyridin-4-yl)-6,7-dihydropyrazolo[1,5-a]pyrazin-5(4H)-yl]prop-2-en-1-one] | 38.7
0.437 | 1.5 | C=CC(=O)N1CCn2nc(-c3ccc(Cl)cc3F)c(-c3ccncc3)c2C1C (racemic) [Example 240, 1-[(RS)-2-(4-chloro-2-fluorophenyl)-4-methyl-3-(pyridin-4-yl)-6,7-dihydropyrazolo[1,5-a]pyrazin-5(4H)-yl]prop-2-en-1-one] | 54
3.88 | 12.3 | C=CC(=O)N1CCn2nc(-c3ccc(OC)cc3)c(-c3ccncc3)c2C1C (racemic) [Example 241, 1-[(RS)-2-(4-methoxyphenyl)-4-methyl-3-(pyridin-4-yl)-6,7-dihydropyrazolo[1,5-a]pyrazin-5(4H)-yl]prop-2-en-1-one] | 77.1
0.445 | 0.839 | C=CC(=O)N1CCn2nc(-c3ccc4sccc4c3)c(-c3ccncc3)c2C1C (racemic) [Example 242, 1-[(RS)-2-(1-benzothiophen-5-yl)-4-methyl-3-(pyridin-4-yl)-6,7-dihydropyrazolo[1,5-a]pyrazin-5(4H)-yl]prop-2-en-1-one] | 48.2
0.395 | 0.656 | C=CC(=O)N1CCn2nc(-c3ccc4cc[nH]c4c3)c(-c3ccncc3)c2C1C (racemic) [Example 243, 1-[(RS)-2-(1H-indol-6-yl)-4-methyl-3-(pyridin-4-yl)-6,7-dihydropyrazolo[1,5-a]pyrazin-5(4H)-yl]prop-2-en-1-one] | 97.8
0.17 | 0.366 | C=CC(=O)N1Cc2c(-c3ccncc3)c(-c3ccc(Cl)cc3)nn2C(C)C1 (racemic) [Example 281, 1-[(7RS)-2-(4-chlorophenyl)-7-methyl-3-(pyridin-4-yl)-6,7-dihydropyrazolo[1,5-a]pyrazin-5(4H)-yl]prop-2-en-1-one] | 9.77

From US20260365653A1, “IRREVERSIBLE MUTEGFR INHIBITORS” (Bayer Aktiengesellschaft, priority 2022, published 2026)
